A short description of the first data set: in vitro. The conditions noted are these: human, hela cells, % viability.
Take `Cc1cc(-n2c(C)cc(C(=O)CSc3n[nH]c(=O)n3CC3CCCO3)c2C)no1` (centres unmarked) [CBK295589]: the viability at 28.5 h, 10 µM is 112%.

For `O=C(NCCc1c[nH]c2ccccc12)N1CCN(Cc2ccccc2)CC1` [CBK155646], the viability at 28.5 h, 10 µM amounted to 78.9%.

With `COc1ccnc(N2CCCN(CCN3CCOCC3)CC2)n1` [CBK084120], the viability at 28.5 h, 10 µM worked out at 119%.

As to `CC(C)(C)c1csc(N2CCSCC2)n1` [CBK021950], the viability at 28.5 h, 10 µM was 119%.

As for `Cc1oc(CC(C)C)c(CN2CCCCC2)c1C(=O)O` [CBK265448C], the viability at 28.5 h, 10 µM worked out at 113%.

With `NC(=S)Nn1c(CCC(=O)O)ccc1-c1cccs1` [CBK265952], the viability at 28.5 h, 10 µM was 92.3%.

Turning to `O=C(NCc1cccnc1)C1CCCN(c2nc3c(-c4ccccc4)csc3c(=O)[nH]2)C1` (centres unmarked) [CBK215492], the viability at 28.5 h, 10 µM turned out to be 112%.

For the compound `CC(C)(C)OC(=O)N1CCN(c2ccnc(N)n2)CC1` [CBK003529], the viability at 28.5 h, 10 µM is 99.4%.

Take `Cc1ccc(Cl)cc1NC(=O)c1ccc(NCCN2C(=O)C3C4C=CC(C4)C3C2=O)c([N+](=O)[O-])c1` (centres unmarked) [CBK268357]: the viability at 28.5 h, 10 µM came out at 92.2%.

For `CC(=O)Nc1ccc2n(c1=O)C[C@H]1C[C@@H]2CN(C(=O)COc2ccccc2)C1` [CBK289074], the viability at 28.5 h, 10 µM was found to be 89%.

For the compound `Cc1cc(COc2ccnc(N3CCCN(CC4CC4)CC3)n2)no1` [CBK084073], the viability at 28.5 h, 10 µM was determined as 91.1%.

With `N#Cc1ccc(-c2cnc(N)c(-c3ccc(C(=O)N4CCOCC4)cc3)n2)cc1` [CBK064067T], the viability at 28.5 h, 10 µM is 116%.

Regarding `O=C1CCCN1c1ccc(CN2CCN(C3CCCC3)C(=O)C2)cc1` [CBK281908], the viability at 28.5 h, 10 µM is 96.2%.

On to `CCn1cc(C(=O)O)c(=O)c2cc(F)c(N3CCN(C(=S)NC(=O)c4c(-c5ccccc5)noc4C)CC3)cc21` [CBK267490], for which the viability at 28.5 h, 10 µM worked out at 86.8%.

Take `CC(C)c1ccc(S(=O)(=O)NC(C#N)c2ccccc2)cc1` (centres unmarked) [CBK044403]: the viability at 28.5 h, 10 µM came out at 101%.

In the case of `CCCC(=O)c1ccc(S(=O)(=O)N2CCCN(Cc3c(-c4ccccc4)nc4sccn34)CC2)cc1` [CBK062912], the viability at 28.5 h, 10 µM is 119%.

Take `Cc1cnc2[nH]c(C(F)(F)F)c(CN3CCOCC3)c2c1` [CBK284766]: the viability at 28.5 h, 10 µM came out at 85.7%.

In the case of `Cn1c(=O)c2c(nc(S)n2CCCc2ccccc2)n(C)c1=O` [CBK288411], the viability at 28.5 h, 10 µM is 105%.

For the compound `CN1C(=O)CC2(C1=O)C(=O)N(Cc1nc(-c3ccc(Cl)cc3)no1)c1ccc(F)cc12` (centres unmarked) [CBK075442], the viability at 28.5 h, 10 µM was found to be 87.8%.

Regarding `CC(C)(C)C(=O)NCCn1nc(-c2cccs2)oc1=O` [CBK282344], the viability at 28.5 h, 10 µM was found to be 110%.

Turning to `CC1=Nc2ccc(Cl)cc2C(C)(C)O1` [CBK022763C], the viability at 28.5 h, 10 µM came out at 107%.

With `O=C(COc1ccccc1)Nc1ccc(N2CCOCC2)c2nonc12` [CBK268149], the viability at 28.5 h, 10 µM amounted to 87.9%.

As to `Cc1c(CN2CCCC(n3cnc4cc(F)ccc43)C2)cnn1C` (centres unmarked) [CBK284478], the viability at 28.5 h, 10 µM was 89.9%.

`CC(C)(C)OC(=O)N1CCN(c2ccc(C(F)(F)F)c(Cl)n2)CC1` [CBK003030]: the viability at 28.5 h, 10 µM stood at 88.9%.

For the compound `Cc1c(-c2cncn2C(C)CN2CCOCC2)[nH]c2ccccc12` (centres unmarked) [CBK281795], the viability at 28.5 h, 10 µM is 99.9%.

Turning to `COc1cc(CN2CCC3(CC2)CN(C(=O)CO)c2ccccc23)cc(OC)c1OC` [CBK131494], the viability at 28.5 h, 10 µM turned out to be 94%.

`Cc1ccc2cc(CN(Cc3ccco3)C(=O)C3CCCO3)c(O)nc2c1` (centres unmarked) [CBK269300]: the viability at 28.5 h, 10 µM amounted to 103%.

Consider `COc1cc(/C=C2\C(=O)N(c3ccc(NC(C)=O)cc3)N=C2c2ccccc2)ccc1O` [CBK265664], for which the viability at 28.5 h, 10 µM amounted to 87.5%.

For the compound `CCCc1c(O)n[nH]c1Cc1ccc(Cl)cc1` [CBK078564], the viability at 28.5 h, 10 µM turned out to be 104%.

As for `CS(=O)(=O)N1CCCc2cc(-c3csc(N4CCOCC4)n3)ccc21` [CBK305022], the viability at 28.5 h, 10 µM was 84.8%.

On to `O=C(CN1CCN(C(=O)C2COc3ccccc3O2)CC1)Nc1ccc2c(c1)OCCO2` (centres unmarked) [CBK074777], for which the viability at 28.5 h, 10 µM was determined as 111%.

In the case of `CCNC(=O)Nc1c[nH]nc1C1CCCN(c2cccc(F)c2C#N)C1` (centres unmarked) [CBK306406], the viability at 28.5 h, 10 µM is 86.5%.

Consider `O=C(CCN1C(=O)C2C3CCC(C3)C2C1=O)OCC(=O)c1ccc(-c2ccccc2)cc1` (centres unmarked) [CBK265113], for which the viability at 28.5 h, 10 µM came to 95.1%.

As for `O=C(CSc1nnc(-c2cccnc2)n1-c1cccc(C(F)(F)F)c1)c1ccc(F)cc1` [CBK267599], the viability at 28.5 h, 10 µM was determined as 87.9%.

Turning to `CC(NC(=O)C1CCN(CCOc2ccccc2)CC1)c1ccccc1` (centres unmarked) [CBK148610], the viability at 28.5 h, 10 µM was 91.5%.

For the compound `COc1ccc(/N=c2/cc(C)[nH]c3ncnn23)cc1` [CBK287893], the viability at 28.5 h, 10 µM worked out at 91.1%.

For the compound `O=C(Nc1ccc(=O)n2c1[C@@H]1C[C@@H](CN(C(=O)COc3ccccc3)C1)C2)c1cncnc1` [CBK288712], the viability at 28.5 h, 10 µM stood at 109%.

`O=C1CC(Nc2ccc(N3CCOCC3)cc2)C(=O)N1CCc1ccccc1` (centres unmarked) [CBK269339]: the viability at 28.5 h, 10 µM was 111%.

As to `Cc1cc(Cl)c(OCCNCCN)c(Br)c1` [CBK265079], the viability at 28.5 h, 10 µM was 91.5%.

For the compound `Cc1ccc(S(=O)(=O)NCCOc2ccc(Cl)cc2)cc1[N+](=O)[O-]` [CBK263268], the viability at 28.5 h, 10 µM was 106%.

Turning to `COc1ccc(-c2nc(-c3cc4ccccc4s3)cnc2N)cc1OC` [CBK063963], the viability at 28.5 h, 10 µM turned out to be 98.6%.

With `O=C1NC(=O)C2(CCN(C(=O)c3csc4c3CCCC4)CC2)N1` [CBK305601], the viability at 28.5 h, 10 µM worked out at 97.2%.

For `O=C(Nc1ccc(F)cc1)c1ccc(NS(=O)(=O)c2ccc(Br)cc2)cc1` [CBK050400], the viability at 28.5 h, 10 µM amounted to 103%.

On to `CCCNc1nc(O)cc(C(F)(F)F)n1` [CBK000214], for which the viability at 28.5 h, 10 µM was 95.8%.

For the compound `N#CCCN(C1CCCCC1)S(=O)(=O)c1ccc(-c2ccc([N+](=O)[O-])cc2)cc1` [CBK261382], the viability at 28.5 h, 10 µM came out at 90.6%.

On to `CCN(CC)c1ccc(NC(=O)N(CCCN2CCOCC2)Cc2ccc(OC)c(OC)c2)cc1` [CBK159168], for which the viability at 28.5 h, 10 µM was found to be 91.1%.

In the case of `O=C(O)/C=C/c1cccc(-c2cnc3[nH]c(=O)n(C4CC4)c3n2)c1` [CBK065091], the viability at 28.5 h, 10 µM was found to be 93.5%.

Consider `CC(=O)C1=C(C)NC(SCC(=O)c2ccc(C)cc2)=C(C#N)C1c1ccco1` (centres unmarked) [CBK262623], for which the viability at 28.5 h, 10 µM turned out to be 109%.

Consider `C#CCNC(=O)[C@H]1O[C@H](CCN2CCOCC2)CC[C@@H]1O` [CBK288729], for which the viability at 28.5 h, 10 µM was 102%.

As to `CC1CCN(C(=O)CN2C(=O)N3CCN=C3c3ccccc32)CC1` [CBK283946], the viability at 28.5 h, 10 µM was determined as 93.6%.

On to `COc1ccc(Cc2nnc(SCC(=O)Nc3ccc(Br)c(C)c3)n2C)cc1` [CBK265816], for which the viability at 28.5 h, 10 µM came to 83.9%.

On to `CCOC(=O)CNS(=O)(=O)c1cccs1` [CBK044958], for which the viability at 28.5 h, 10 µM worked out at 93.3%.

`CCCC(=O)NCCn1ncc(-c2ccncc2)c1C1CC1` [CBK282116]: the viability at 28.5 h, 10 µM was 83.6%.

As to `CN(C)S(=O)(=O)Nc1ccc2[nH]ccc2c1` [CBK156321], the viability at 28.5 h, 10 µM was determined as 92.2%.

As for `O=C(c1cccnc1)N1CCN(S(=O)(=O)c2ccc(F)cc2)CC1` [CBK264210], the viability at 28.5 h, 10 µM is 92.8%.

As for `NC(=O)C1CCN(S(=O)(=O)c2ccc([N+](=O)[O-])cc2)CC1` [CBK261455], the viability at 28.5 h, 10 µM is 87%.

On to `O=[N+]([O-])c1cc(-c2nc(-c3ccco3)c(-c3ccco3)[nH]2)ccc1Br` [CBK019778], for which the viability at 28.5 h, 10 µM turned out to be 86.3%.

Consider `CCN(CC)C(=O)c1cccc(NS(=O)(=O)c2cccc3cccnc23)c1` [CBK038999], for which the viability at 28.5 h, 10 µM is 66.5%.

Take `CN(C)c1cccc(Nc2ccc(/C=C/c3ccccc3)cn2)c1` [CBK036984]: the viability at 28.5 h, 10 µM is 98.7%.

Regarding `COc1cccc(C(=O)NNC(=O)Nc2ccccc2)c1` [CBK261608], the viability at 28.5 h, 10 µM was found to be 91.8%.

Consider `COc1ccc(Nc2ccc(-c3ccc4c(c3)OCO4)cn2)c(C)c1` [CBK036799], for which the viability at 28.5 h, 10 µM came to 102%.

For the compound `Fc1ccc(Cn2nnc(-c3ccncc3)n2)c(Cl)c1` [CBK288534], the viability at 28.5 h, 10 µM worked out at 102%.

On to `O=C1CCC(C(=O)N2CCN(S(=O)(=O)c3ccccc3Cl)CC2)N1` (centres unmarked) [CBK304561], for which the viability at 28.5 h, 10 µM stood at 77.6%.

With `CN(C)c1ccc(/C=N/NC(=O)CCn2c3ccccc3c3cc(I)ccc32)cc1` [CBK262902], the viability at 28.5 h, 10 µM is 84.5%.

For the compound `O=C(O)/C=C/c1cccc(-c2cncc(N3CCN(Cc4ccccn4)CC3)n2)c1` [CBK066085], the viability at 28.5 h, 10 µM is 96%.

Consider `O=S(=O)(NCCc1cccc(C(F)(F)F)c1)c1cccs1` [CBK044068], for which the viability at 28.5 h, 10 µM came out at 91.1%.

Consider `Cc1cc(=O)oc2cc(SCc3ccc(SC(F)(F)F)cc3)ccc12` [CBK002897], for which the viability at 28.5 h, 10 µM worked out at 97.6%.

With `OC1(c2cccnc2)CCCC2CN(Cc3ccc(F)c(F)c3)CC21` (centres unmarked) [CBK284511], the viability at 28.5 h, 10 µM amounted to 101%.

`CCNS(=O)(=O)c1ccc(Cn2nc(NC(=O)C3COc4ccccc4O3)c3ccccc32)cc1` (centres unmarked) [CBK061613]: the viability at 28.5 h, 10 µM worked out at 109%.

Regarding `N#CC1=C(N)Oc2cc(N)ccc2C1c1ccc(-c2ccccc2)cc1` (centres unmarked) [CBK261605], the viability at 28.5 h, 10 µM came to 91.3%.

Take `Cc1ccc(CC2CCCN2CC(=O)NCc2ccccn2)cc1` (centres unmarked) [CBK304070]: the viability at 28.5 h, 10 µM was found to be 96.6%.

As to `NCc1ccc(CN(Cc2cccc(Cl)c2)C(=O)NC(c2ccccc2)c2ccccc2)cc1` [CBK046087C], the viability at 28.5 h, 10 µM worked out at 91.6%.

For the compound `O=C(CSc1nnc(CN2CCOCC2)n1-c1ccccc1)N1CCN(c2ccccc2)CC1` [CBK266660], the viability at 28.5 h, 10 µM is 102%.

For the compound `N#Cc1ccccc1Cn1cc(C(=O)COc2ccccc2)c2ccccc21` [CBK268532], the viability at 28.5 h, 10 µM amounted to 90.5%.

As for `O=C(NCc1ccco1)c1c(NC(=O)C2CCCO2)sc2c1CCC2` (centres unmarked) [CBK268180], the viability at 28.5 h, 10 µM was 94.4%.

In the case of `O=C(N/N=C/c1ccc(Br)s1)c1cccc([N+](=O)[O-])c1` [CBK261354], the viability at 28.5 h, 10 µM is 117%.

Still in this data set, the particulars now being: human, hela cells, % viability, bulk resorufin, single well.
For `O=C(O)c1cc(N2C(=O)c3cccc4c([N+](=O)[O-])ccc(c34)C2=O)cc(N2C(=O)c3cccc4c([N+](=O)[O-])ccc(c34)C2=O)c1` [CBK262119], the viability at 28.5 h, 10 µM is 91.8%.

Values taken from paper PMC12040169 (PLOS Biology, 2025).
